Measurements: ChEMBL document CHEMBL1139458, “Discovery of small-molecule inhibitors of the ATPase activity of human papillomavirus E1 helicase” (J Med Chem, 2004)

Molecular target: T1, DNA helicase/primase complex protein (Herpes simplex virus (type 1 / strain 17), UniProt P10236)
T1 sequence (P10236 whole entry): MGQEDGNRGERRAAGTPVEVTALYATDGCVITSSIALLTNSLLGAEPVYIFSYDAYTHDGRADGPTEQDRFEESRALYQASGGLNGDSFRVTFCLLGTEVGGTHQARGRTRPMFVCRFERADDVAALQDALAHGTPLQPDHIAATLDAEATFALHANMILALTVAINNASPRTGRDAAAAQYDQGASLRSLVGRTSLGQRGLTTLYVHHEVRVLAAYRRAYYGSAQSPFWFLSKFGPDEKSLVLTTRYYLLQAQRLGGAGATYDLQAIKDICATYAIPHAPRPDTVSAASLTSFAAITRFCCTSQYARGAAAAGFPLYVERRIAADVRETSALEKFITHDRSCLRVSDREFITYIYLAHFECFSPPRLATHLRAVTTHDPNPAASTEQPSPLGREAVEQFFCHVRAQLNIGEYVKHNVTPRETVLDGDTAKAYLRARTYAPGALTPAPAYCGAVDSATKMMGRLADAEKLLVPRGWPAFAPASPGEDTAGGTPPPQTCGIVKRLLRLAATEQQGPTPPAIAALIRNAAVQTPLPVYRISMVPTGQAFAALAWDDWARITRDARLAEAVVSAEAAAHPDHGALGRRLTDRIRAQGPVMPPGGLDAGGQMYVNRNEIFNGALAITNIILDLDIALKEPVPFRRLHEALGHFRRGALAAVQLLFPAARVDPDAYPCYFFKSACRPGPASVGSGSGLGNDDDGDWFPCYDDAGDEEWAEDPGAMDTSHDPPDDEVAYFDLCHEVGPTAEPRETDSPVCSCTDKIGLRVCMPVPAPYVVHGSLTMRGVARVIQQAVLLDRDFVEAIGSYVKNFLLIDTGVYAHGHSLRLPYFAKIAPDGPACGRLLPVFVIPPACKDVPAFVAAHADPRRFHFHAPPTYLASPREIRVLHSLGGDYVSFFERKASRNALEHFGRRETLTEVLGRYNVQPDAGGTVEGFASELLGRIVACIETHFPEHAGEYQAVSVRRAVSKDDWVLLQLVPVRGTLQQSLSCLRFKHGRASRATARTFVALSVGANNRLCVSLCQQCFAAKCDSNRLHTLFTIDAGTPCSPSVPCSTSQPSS
Experiment: Inhibitory concentration against herpes simplex virus helicase primase 8 (HSV)

In the case of `O=C(O)CS(=O)(=O)c1ccc(-c2ccccc2)cc1`, the IC50 is reported as over 80 µM.
